Measurements: PubChem BioAssay AID651961 (The Scripps Research Institute Molecular Screening Center, 2012)
The source made the active and inactive calls. The rule behind the calls is not given here.

system: BLA reporter cell line, FRET fluorescence counterscreen; test: beta-lactamase reporter inhibition, nonselective hits, late-stage follow-up, counter-screen for NOD2-RIPK2 interaction inhibitor project, cell-based, FRET fluorescence, dose response (AID 651961)

Compound	IC50
Cc1nc([N+](=O)[O-])c(Br)n1Cc1ccc(Cl)c(Cl)c1	> 49.8 µM (inactive)
COc1ccc(C(C[N+](=O)[O-])n2nc(C)cc2C)cc1 (stereo unspecified)	> 49.8 µM (inactive)
Cc1cc(S(=O)(=O)N2CCCCCC2)ccc1F	> 49.8 µM (inactive)
O=S(=O)(c1ccc(F)cc1)N1CCCCCC1	> 49.8 µM (inactive)
Cc1ccc(S(=O)(=O)N2CCCCCC2)cc1[N+](=O)[O-]	> 49.8 µM (inactive)
O=[N+]([O-])c1cccc(S(=O)(=O)N2CCCCCC2)c1	> 49.8 µM (inactive)
O=S(=O)(c1ccccc1)N1CCCCCC1	> 49.8 µM (inactive)
Cc1ccc(C(C[N+](=O)[O-])n2nc(C)cc2C)cc1 (stereo unspecified)	> 49.8 µM (inactive)
Cc1nc([N+](=O)[O-])c(Br)n1Cc1ccccc1	> 49.8 µM (inactive)
Cc1ncc([N+](=O)[O-])n1Cc1ccc(Cl)c(Cl)c1	> 49.8 µM (inactive)
O=[N+]([O-])c1cc(S(=O)(=O)N2CCCCCC2)ccc1F	> 49.8 µM (inactive)
